Test results reported in patent US12077503B2, “Substituted cyclic amides and their use as herbicides” (FMC CORPORATION, priority 2015, dated 2024).

Key:
Type in all cases: in vivo
[1] = tested on: velvetleaf (Abutilon theophrasti); experiment: Test G Pre-Emergence Protocol; details: Abutilon theophrasti, pre-emergence, 312 h, evaluated after 13 days; for pest or weed control at 15.625 g/ha: 15.625 g ai/ha; for pest or weed control at 15.625 g/ha / pest or weed control at 250 g/ha: read-out: Velvetleaf damage rating (100=total damage to plant; 0=no damage to plant); for pest or weed control at 62.5 g/ha: 62.5 g ai/ha, 100=total damage to plant, 0=no damage to plant, read-out: Velvetleaf damage rating; for pest or weed control at 250 g/ha: 250 g ai/ha
How it was run: (§1)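 Glasshouse pre-emergence test: soil-sown seeds, sprayed after 1 d at 15.625, 62.5 or 250 g/ha. Conditions 24/16° C day/night, 14 h light, 65% humidity, watering twice daily. Rating 13 d post-spray (100 = total damage).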

[2] = tested on: giant foxtail (Setaria faberi); experiment: Test G Pre-Emergence Protocol; details: Setaria faberi, pre-emergence, 312 h, evaluated after 13 days; for pest or weed control at 15.625 g/ha: 15.625 g ai/ha; for pest or weed control at 15.625 g/ha / pest or weed control at 250 g/ha: read-out: Foxtail, Giant damage rating (100=total damage to plant; 0=no damage to plant); for pest or weed control at 62.5 g/ha: 62.5 g ai/ha, 100=total damage to plant, 0=no damage to plant, read-out: Foxtail, Giant damage rating; for pest or weed control at 250 g/ha: 250 g ai/ha
How it was run: as §1

[3] = tested on: redroot pigweed (Amaranthus retroflexus); experiment: Test G Pre-Emergence Protocol; details: Amaranthus retroflexus, pre-emergence, 312 h, evaluated after 13 days; for pest or weed control at 15.625 g/ha: 15.625 g ai/ha; for pest or weed control at 15.625 g/ha / pest or weed control at 250 g/ha: read-out: Pigweed, Redroot damage rating (100=total damage to plant; 0=no damage to plant); for pest or weed control at 62.5 g/ha: 62.5 g ai/ha, 100=total damage to plant, 0=no damage to plant, read-out: Pigweed, Redroot damage rating; for pest or weed control at 250 g/ha: 250 g ai/ha
How it was run: as §1

[4] = tested on: corn (Zea mays); experiment: Test G Pre-Emergence Protocol; details: Zea mays, pre-emergence, 312 h, evaluated after 13 days; for plant injury at 15.625 g/ha: 15.625 g ai/ha; for plant injury at 15.625 g/ha / plant injury at 250 g/ha: read-out: Corn damage rating (100=total damage to plant; 0=no damage to plant); for plant injury at 62.5 g/ha: 62.5 g ai/ha, 100=total damage to plant, 0=no damage to plant, read-out: Corn damage rating; for plant injury at 250 g/ha: 250 g ai/ha
How it was run: as §1

[5] = tested on: ivy-leaved morning glory (Ipomoea hederacea); experiment: Test G Pre-Emergence Protocol; details: Ipomoea, pre-emergence, 312 h, evaluated after 13 days; for pest or weed control at 15.625 g/ha: 15.625 g ai/ha; for pest or weed control at 15.625 g/ha / pest or weed control at 250 g/ha: read-out: Morningglory, Ivy-leaved damage rating (100=total damage to plant; 0=no damage to plant); for pest or weed control at 62.5 g/ha: 62.5 g ai/ha, 100=total damage to plant, 0=no damage to plant, read-out: Morningglory, Ivy-leaved damage rating; for pest or weed control at 250 g/ha: 250 g ai/ha
How it was run: as §1

[6] = tested on: barnyardgrass (Echinochloa crus-galli); experiment: Test G Pre-Emergence Protocol; details: Echinochloa crus-galli, pre-emergence, 312 h, evaluated after 13 days; for pest or weed control at 15.625 g/ha: 15.625 g ai/ha; for pest or weed control at 15.625 g/ha / pest or weed control at 250 g/ha: read-out: Barnyardgrass damage rating (100=total damage to plant; 0=no damage to plant); for pest or weed control at 62.5 g/ha: 62.5 g ai/ha, 100=total damage to plant, 0=no damage to plant, read-out: Barnyardgrass damage rating; for pest or weed control at 250 g/ha: 250 g ai/ha
How it was run: as §1

[7] = tested on: velvetleaf (Abutilon theophrasti); experiment: Test G Post-Emergence Protocol; details: Abutilon theophrasti, post-emergence, 312 h, read-out: Velvetleaf damage rating; for pest or weed control at 15.625 g/ha: 15.625 g ai/ha, evaluated after 13 days (100=total damage to plant; 0=no damage to plant); for pest or weed control at 62.5 g/ha: 62.5 g ai/ha; for pest or weed control at 62.5 g/ha / pest or weed control at 250 g/ha: evaluated after 13 days, 100=total damage to plant, 0=no damage to plant; for pest or weed control at 250 g/ha: 250 g ai/ha
How it was run: (§2)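 Seedlings grown 8 days in soil in a glasshouse (24/16 °C day/night, 14 h light, 65% humidity) were sprayed post-emergence with compound in acetone/water 50:50 plus 0.5% Tween 20 at 15.625, 62.5 or 250 g/ha. Damage was scored after 13 days on a 0–100 scale (100 = total damage).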

[8] = tested on: giant foxtail (Setaria faberi); experiment: Test G Post-Emergence Protocol; details: Setaria faberi, post-emergence, 312 h, read-out: Foxtail, Giant damage rating; for pest or weed control at 15.625 g/ha: 15.625 g ai/ha, evaluated after 13 days (100=total damage to plant; 0=no damage to plant); for pest or weed control at 62.5 g/ha: 62.5 g ai/ha; for pest or weed control at 62.5 g/ha / pest or weed control at 250 g/ha: evaluated after 13 days, 100=total damage to plant, 0=no damage to plant; for pest or weed control at 250 g/ha: 250 g ai/ha
How it was run: as §2

[9] = tested on: redroot pigweed (Amaranthus retroflexus); experiment: Test G Post-Emergence Protocol; details: Amaranthus retroflexus, post-emergence, 312 h, read-out: Pigweed, Redroot damage rating; for pest or weed control at 15.625 g/ha: 15.625 g ai/ha, evaluated after 13 days (100=total damage to plant; 0=no damage to plant); for pest or weed control at 62.5 g/ha: 62.5 g ai/ha; for pest or weed control at 62.5 g/ha / pest or weed control at 250 g/ha: evaluated after 13 days, 100=total damage to plant, 0=no damage to plant; for pest or weed control at 250 g/ha: 250 g ai/ha
How it was run: as §2

[10] = tested on: corn (Zea mays); experiment: Test G Post-Emergence Protocol; details: Zea mays, post-emergence, 312 h, read-out: Corn damage rating; for plant injury at 15.625 g/ha: 15.625 g ai/ha, evaluated after 13 days (100=total damage to plant; 0=no damage to plant); for plant injury at 62.5 g/ha: 62.5 g ai/ha; for plant injury at 62.5 g/ha / plant injury at 250 g/ha: evaluated after 13 days, 100=total damage to plant, 0=no damage to plant; for plant injury at 250 g/ha: 250 g ai/ha
How it was run: as §2

[11] = tested on: ivy-leaved morning glory (Ipomoea hederacea); experiment: Test G Post-Emergence Protocol; details: Ipomoea, post-emergence, 312 h, read-out: Morningglory, Ivy-leaved damage rating; for pest or weed control at 15.625 g/ha: 15.625 g ai/ha, evaluated after 13 days (100=total damage to plant; 0=no damage to plant); for pest or weed control at 62.5 g/ha: 62.5 g ai/ha; for pest or weed control at 62.5 g/ha / pest or weed control at 250 g/ha: evaluated after 13 days, 100=total damage to plant, 0=no damage to plant; for pest or weed control at 250 g/ha: 250 g ai/ha
How it was run: as §2

[12] = tested on: barnyardgrass (Echinochloa crus-galli); experiment: Test G Post-Emergence Protocol; details: Echinochloa crus-galli, post-emergence, 312 h, read-out: Barnyardgrass damage rating; for pest or weed control at 15.625 g/ha: 15.625 g ai/ha, evaluated after 13 days (100=total damage to plant; 0=no damage to plant); for pest or weed control at 62.5 g/ha: 62.5 g ai/ha; for pest or weed control at 62.5 g/ha / pest or weed control at 250 g/ha: evaluated after 13 days, 100=total damage to plant, 0=no damage to plant; for pest or weed control at 250 g/ha: 250 g ai/ha
How it was run: as §2

Structure (SMILES)	pest or weed control at 15.625 g/ha [1] [%]	pest or weed control at 62.5 g/ha [1] [%]	pest or weed control at 250 g/ha [1] [%]	pest or weed control at 15.625 g/ha [2] [%]	pest or weed control at 62.5 g/ha [2] [%]	pest or weed control at 250 g/ha [2] [%]	pest or weed control at 15.625 g/ha [3] [%]	pest or weed control at 62.5 g/ha [3] [%]	pest or weed control at 250 g/ha [3] [%]	plant injury at 15.625 g/ha [4] [%]	plant injury at 62.5 g/ha [4] [%]	plant injury at 250 g/ha [4] [%]	pest or weed control at 15.625 g/ha [5] [%]	pest or weed control at 62.5 g/ha [5] [%]	pest or weed control at 250 g/ha [5] [%]	pest or weed control at 15.625 g/ha [6] [%]	pest or weed control at 62.5 g/ha [6] [%]	pest or weed control at 250 g/ha [6] [%]	pest or weed control at 15.625 g/ha [7] [%]	pest or weed control at 62.5 g/ha [7] [%]	also measured
CN1C[C@H](c2ccc(C(F)(F)F)cc2)[C@@H](C(=O)Nc2cccnc2S(C)(=O)=O)C1=O (racemic) [Compound 1789]	0	0	20	0	0	0	0	0	20	0	0	10	0	0	0	0	0	0	0	0	pest or weed control at 250 g/ha [7]: 20%; pest or weed control at 15.625 g/ha [8]: 0%; pest or weed control at 62.5 g/ha [8]: 0%; pest or weed control at 15.625 g/ha [9]: 0%; pest or weed control at 62.5 g/ha [9]: 0%; pest or weed control at 250 g/ha [9]: 20%; plant injury at 15.625 g/ha [10]: 0%; plant injury at 62.5 g/ha [10]: 0%; plant injury at 250 g/ha [10]: 10%; pest or weed control at 15.625 g/ha [11]: 0%; pest or weed control at 62.5 g/ha [11]: 0%; pest or weed control at 250 g/ha [11]: 0%; pest or weed control at 15.625 g/ha [12]: 0%; pest or weed control at 62.5 g/ha [12]: 0%; pest or weed control at 250 g/ha [12]: 0%
CCOc1ccc(C2CN(C)C(=O)C2C(=O)Nc2cccc(F)c2F)cc1F (centres unmarked) [Compound 1717]	0	10	0	60	90	90	0	10	20	0	0	0	0	0	0	0	40	90	0	0	pest or weed control at 250 g/ha [7]: 0%; pest or weed control at 15.625 g/ha [8]: 30%; pest or weed control at 62.5 g/ha [8]: 70%; pest or weed control at 250 g/ha [8]: 80%; pest or weed control at 15.625 g/ha [9]: 0%; pest or weed control at 62.5 g/ha [9]: 0%; pest or weed control at 250 g/ha [9]: 0%; plant injury at 15.625 g/ha [10]: 0%; plant injury at 62.5 g/ha [10]: 0%; plant injury at 250 g/ha [10]: 10%; pest or weed control at 15.625 g/ha [11]: 0%; pest or weed control at 62.5 g/ha [11]: 0%; pest or weed control at 250 g/ha [11]: 0%; pest or weed control at 15.625 g/ha [12]: 0%; pest or weed control at 62.5 g/ha [12]: 60%; pest or weed control at 250 g/ha [12]: 70%
COC(=O)c1cc([C@H]2CN(C)C(=O)[C@@H]2C(=O)Nc2cccc(F)c2F)ccc1F (racemic) [Compound 1678]	0	0	0	0	0	0	0	0	0	0	0	0	0	0	0	0	0	0	0	0	pest or weed control at 250 g/ha [7]: 0%; pest or weed control at 15.625 g/ha [8]: 0%; pest or weed control at 62.5 g/ha [8]: 10%; pest or weed control at 250 g/ha [8]: 20%; pest or weed control at 15.625 g/ha [9]: 10%; pest or weed control at 62.5 g/ha [9]: 10%; pest or weed control at 250 g/ha [9]: 30%; plant injury at 15.625 g/ha [10]: 0%; plant injury at 62.5 g/ha [10]: 0%; plant injury at 250 g/ha [10]: 0%; pest or weed control at 15.625 g/ha [11]: 0%; pest or weed control at 62.5 g/ha [11]: 0%; pest or weed control at 250 g/ha [11]: 0%; pest or weed control at 15.625 g/ha [12]: 0%; pest or weed control at 62.5 g/ha [12]: 10%; pest or weed control at 250 g/ha [12]: 30%
